Earlier results in patent US9629846B1, “Nutritional supplements for women desiring to become pregnant, and pregnant and nursing women” (Argent Development Group, LLC, priority 2013, dated 2017).

Tests used:
[1] = dietary iron, heme versus non-heme
[2] = nutrient depletion

| Compound | absorption [1] [%] | effect on folate, magnesium and Vitamin B12 levels [2] |
| --- | --- | --- |
| Heme iron | 30 | – |
| CN(C)C(=N)N=C(N)N [metformin] | – | reduce folate, magnesium, and Vitamin B12 levels |
